Literature values in patent US20120213707A1, “Riboflavin Based Aerosol and Use as Placebo in Trials” (MPEX PHARMACEUTICALS, INC., priority 2009, published 2012).

System: men and women with a history of recurrent migraine headaches
Details: cited from earlier work

Cc1cc2nc3c(=O)[nH]c(=O)nc-3n(C[C@H](O)[C@H](O)[C@H](O)CO)c2cc1C [riboflavin]
median migraine attack frequency (400 mg of riboflavin daily for three months, 23 patients, Boehnke 2004): reduction in median migraine attack frequency
migraine attack frequency and number of headache days versus placebo (400 mg of riboflavin/day for three months, 54 men and women, Schoenen 1998): significantly better than placebo
clinical outcome in migraine (high-dose riboflavin, Sandor 2000): clinical improvement
